Measurements reported in PMC5595947 (British Journal of Clinical Pharmacology, 2017).
pIC50: −log10 of the molar value. Where two headings read alike, the source gives them in different places. One block for each compound: values may come before it.

Experiments:
CYP2C9 [1] = target: CYP2C9 (Homo sapiens, UniProt P11712); settings: HLM; TV‐45065 0.05 to 50 μmol l^–1; printed CYP2C8/9
CYP3A4/5 = CYP3A4/5 induction in cultured human hepatocytes; format: in vitro ADME
CYP2C9 [2] = format: in vitro ADME, human
CYP2D6 [3] = target: T1, CYP2D6 (Homo sapiens, UniProt P10635); assay: CYP2D6 inhibition in human liver microsomes; format: in vitro ADME
[4] = cited from earlier work; for elimination half‐life: metabolite
CYP1A2 [5] = format: in vitro ADME, human
CYP2C19 [6] = target: CYP2C19 (Homo sapiens, UniProt P33261); settings: HLM; TV‐45065 0.05 to 50 μmol l^–1
CYP2C8 [7] = format: in vitro ADME, human
CYP2C8 [8] = target: T2, CYP2C8 (Homo sapiens, UniProt P10632); settings: HLM; TV‐45065 0.05 to 50 μmol l^–1; printed CYP2C8/9
T2 sequence (P10632 1-490): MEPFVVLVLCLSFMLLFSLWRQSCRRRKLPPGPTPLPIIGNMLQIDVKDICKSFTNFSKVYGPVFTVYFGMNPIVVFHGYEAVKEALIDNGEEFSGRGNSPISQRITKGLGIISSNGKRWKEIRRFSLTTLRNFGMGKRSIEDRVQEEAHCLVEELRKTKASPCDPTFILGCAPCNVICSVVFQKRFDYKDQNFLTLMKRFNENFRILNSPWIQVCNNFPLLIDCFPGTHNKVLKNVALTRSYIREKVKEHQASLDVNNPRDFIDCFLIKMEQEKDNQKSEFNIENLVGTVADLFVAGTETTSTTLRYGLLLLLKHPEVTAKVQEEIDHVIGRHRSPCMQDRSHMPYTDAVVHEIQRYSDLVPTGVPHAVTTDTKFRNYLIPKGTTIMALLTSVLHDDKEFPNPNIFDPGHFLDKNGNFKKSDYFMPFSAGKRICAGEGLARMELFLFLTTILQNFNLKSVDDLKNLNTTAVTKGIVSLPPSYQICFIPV

CYP2C19 [9] = format: in vitro ADME, human
CYP1A2 [10] = target: T3, CYP1A2 (Homo sapiens, UniProt P05177); settings: HLM; TV‐45065 0.05 to 50 μmol l^–1
T3 sequence (P05177 1-516): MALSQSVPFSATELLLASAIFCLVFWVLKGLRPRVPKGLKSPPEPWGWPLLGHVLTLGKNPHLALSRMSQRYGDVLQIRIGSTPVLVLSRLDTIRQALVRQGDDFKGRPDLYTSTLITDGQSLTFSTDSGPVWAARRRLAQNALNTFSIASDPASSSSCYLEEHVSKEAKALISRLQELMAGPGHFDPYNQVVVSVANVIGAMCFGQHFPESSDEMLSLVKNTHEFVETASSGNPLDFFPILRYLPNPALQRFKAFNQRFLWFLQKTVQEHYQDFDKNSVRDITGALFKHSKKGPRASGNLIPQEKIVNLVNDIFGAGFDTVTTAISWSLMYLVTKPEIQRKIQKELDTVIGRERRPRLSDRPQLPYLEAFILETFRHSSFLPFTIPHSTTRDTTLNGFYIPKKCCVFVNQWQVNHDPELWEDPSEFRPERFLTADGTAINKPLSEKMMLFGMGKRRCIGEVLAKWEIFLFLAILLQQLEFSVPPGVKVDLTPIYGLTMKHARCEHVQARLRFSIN

CYP3A4 = CYP3A4 (Homo sapiens, UniProt P08684); assay: CYP3A4 inhibition in human liver microsomes; format: in vitro ADME; settings: HLM; TV‐45065 0.05 to 50 μmol l^–1
CYP2B6 = format: in vitro ADME, human
CYP2D6 [11] = target: T1, CYP2D6; assay: clinical; settings: plasma, 100 mg
CYP2D6 [12] = target: T1, CYP2D6
clinical = settings: human, plasma, oral, 45 mg
[13] = not given; remark: listed apart in the source
[14] = Safety and adverse events in the phase‐1 study in healthy subjects; format: in vivo, human
CYP2D6 [15] = target: T1, CYP2D6; settings: up to 100 μmol l^–1 pridopidine
[16] = up to 50 μmol l^–1 TV‐45065, three consecutive days
[17] = caused by steady‐state pridopidine (discussion)
[18] = metoprolol coadministered with pridopidine vs alone
[19] = up to 100 μmol l^–1 pridopidine, 3 days, three hepatocyte cultures
[20] = up to 100 μmol l^–1 pridopidine, cultured human hepatocytes

T1 sequence (P10635 whole entry): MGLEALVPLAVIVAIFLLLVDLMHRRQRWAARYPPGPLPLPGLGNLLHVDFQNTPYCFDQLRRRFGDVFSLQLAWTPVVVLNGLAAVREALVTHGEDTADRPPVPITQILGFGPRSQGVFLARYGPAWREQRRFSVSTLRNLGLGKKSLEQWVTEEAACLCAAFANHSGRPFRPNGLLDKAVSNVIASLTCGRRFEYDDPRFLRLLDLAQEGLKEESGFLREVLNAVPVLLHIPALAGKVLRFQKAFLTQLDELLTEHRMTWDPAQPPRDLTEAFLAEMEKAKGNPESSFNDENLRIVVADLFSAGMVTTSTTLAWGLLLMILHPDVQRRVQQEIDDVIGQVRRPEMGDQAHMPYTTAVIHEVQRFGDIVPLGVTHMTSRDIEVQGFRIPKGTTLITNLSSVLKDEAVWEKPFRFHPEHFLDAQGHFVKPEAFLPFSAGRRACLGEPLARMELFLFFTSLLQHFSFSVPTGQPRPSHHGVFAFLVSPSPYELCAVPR
Sequence of CYP2C9 (Homo sapiens, UniProt P11712) (P11712 whole entry): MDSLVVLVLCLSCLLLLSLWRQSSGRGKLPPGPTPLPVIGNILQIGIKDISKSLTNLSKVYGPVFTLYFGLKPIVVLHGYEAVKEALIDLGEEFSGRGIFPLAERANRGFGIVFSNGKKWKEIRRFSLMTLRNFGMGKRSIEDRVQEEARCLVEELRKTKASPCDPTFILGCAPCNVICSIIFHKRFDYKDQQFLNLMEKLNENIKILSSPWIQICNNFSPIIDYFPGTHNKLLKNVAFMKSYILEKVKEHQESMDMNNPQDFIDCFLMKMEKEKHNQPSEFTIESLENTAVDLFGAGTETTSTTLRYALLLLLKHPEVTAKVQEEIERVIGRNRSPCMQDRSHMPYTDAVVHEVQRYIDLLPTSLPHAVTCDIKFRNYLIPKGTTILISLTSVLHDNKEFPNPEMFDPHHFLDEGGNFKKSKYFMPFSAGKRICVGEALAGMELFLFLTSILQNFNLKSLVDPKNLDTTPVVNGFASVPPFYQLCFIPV
Sequence of CYP3A4 (P08684 2-503): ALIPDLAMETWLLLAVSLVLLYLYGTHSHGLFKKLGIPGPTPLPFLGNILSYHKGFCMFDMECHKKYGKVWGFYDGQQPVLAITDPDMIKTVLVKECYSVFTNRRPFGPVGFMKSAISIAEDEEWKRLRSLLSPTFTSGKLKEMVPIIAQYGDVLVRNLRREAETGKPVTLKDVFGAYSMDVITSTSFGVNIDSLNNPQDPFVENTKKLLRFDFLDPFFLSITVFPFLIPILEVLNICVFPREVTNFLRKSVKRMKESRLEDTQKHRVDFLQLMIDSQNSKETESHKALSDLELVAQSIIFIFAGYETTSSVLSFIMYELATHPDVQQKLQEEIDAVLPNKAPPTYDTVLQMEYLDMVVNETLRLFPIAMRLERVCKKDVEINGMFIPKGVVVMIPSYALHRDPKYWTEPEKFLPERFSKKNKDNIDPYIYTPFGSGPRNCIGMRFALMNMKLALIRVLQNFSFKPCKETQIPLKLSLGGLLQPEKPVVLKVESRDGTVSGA
Sequence of CYP2C19 (Homo sapiens, UniProt P33261) (P33261 whole entry): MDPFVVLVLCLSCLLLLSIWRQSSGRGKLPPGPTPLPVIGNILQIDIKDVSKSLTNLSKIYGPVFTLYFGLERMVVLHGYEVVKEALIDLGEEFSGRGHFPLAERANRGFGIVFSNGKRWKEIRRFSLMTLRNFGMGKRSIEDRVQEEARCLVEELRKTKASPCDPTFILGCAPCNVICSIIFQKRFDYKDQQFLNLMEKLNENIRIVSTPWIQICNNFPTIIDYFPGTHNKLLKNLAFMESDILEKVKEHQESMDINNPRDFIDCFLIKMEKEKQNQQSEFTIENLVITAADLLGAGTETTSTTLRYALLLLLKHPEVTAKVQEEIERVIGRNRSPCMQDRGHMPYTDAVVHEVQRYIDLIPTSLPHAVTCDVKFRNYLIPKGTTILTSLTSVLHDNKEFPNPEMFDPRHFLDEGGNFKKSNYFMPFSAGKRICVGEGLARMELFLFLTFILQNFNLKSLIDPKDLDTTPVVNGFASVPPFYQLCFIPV

direct inhibition of CYP2C9 (CYP2C9 [1]): did not show any direct inhibition
CYP3A4/5 induction, effectiveness relative to positive control CYP inducer (CYP3A4/5; [16]): ≤ 20%
increase in CYP3A4/5 activity or mRNA expression (on average) (CYP3A4/5; [16]): ≤ 2.0 fold
CYP2C9 induction, effectiveness relative to positive control CYP inducer (CYP2C9 [2]; [16]): ≤ 20%
increase in CYP2C9 activity or mRNA expression (on average) (CYP2C9 [2]; [16]): ≤ 2.0 fold
direct inhibition of CYP2D6 (CYP2D6 [3]; HLM, TV‐45065 0.05 to 50 μmol l^–1): did not show any direct inhibition
pIC50 (CYP2D6 [3]; read-out: IC50, time‐/metabolism‐dependent inhibition of CYP2D6, HLM, TV‐45065 0.05 to 50 μmol l^–1): < 4.30
CYP1A2 induction, effectiveness relative to positive control CYP inducer (CYP1A2 [5]; [16]): ≤ 20%
increase in CYP1A2 activity or mRNA expression (on average) (CYP1A2 [5]; [16]): ≤ 2.0 fold
direct inhibition of CYP2C19 (CYP2C19 [6]): did not show any direct inhibition
CYP2C8 induction, effectiveness relative to positive control CYP inducer (CYP2C8 [7]; [16]): ≤ 20%
increase in CYP2C8 activity or mRNA expression (on average) (CYP2C8 [7]; [16]): ≤ 2.0 fold
direct inhibition of CYP2C8 (CYP2C8 [8]): did not show any direct inhibition
Cmax and AUC, fed vs fasted states (metabolite after single 90‐mg pridopidine dose, data not shown): similar
CYP2C19 induction, effectiveness relative to positive control CYP inducer (CYP2C19 [9]; [16]): ≤ 20%
increase in CYP2C19 activity or mRNA expression (on average) (CYP2C19 [9]; [16]): ≤ 2.0 fold
direct inhibition of CYP1A2 (CYP1A2 [10]): did not show any direct inhibition
direct inhibition of CYP3A4 (CYP3A4): did not show any direct inhibition
CYP2B6 induction, effectiveness relative to positive control CYP inducer (CYP2B6; [16]): ≤ 20%
increase in CYP2B6 activity or mRNA expression (on average) (CYP2B6; [16]): ≤ 2.0 fold
SMILES: CS(=O)(=O)c1cccc(C2CCNCC2)c1 [TV‐45065]
elimination half‐life ([4]; repeated administration, extensive metabolizers): 17 h
elimination half‐life ([4]; repeated administration, poor metabolizers): 19 h
elimination half‐life ([4]; single dose administration, extensive metabolizers): approximately 8 h
elimination half‐life ([4]; single dose administration, poor metabolizers): ~32 h

Tmax (CYP2D6 [11]; oral): 0.75 to 2 h
AUC(0-inf) (CYP2D6 [11]; po): 460 ng·h/mL
AUC(0-t) (CYP2D6 [11]; po): 447 ng·h/mL
Cmax (CYP2D6 [11]; po): 84 ng/mL
Tmax (CYP2D6 [11]; po): ~2 h
increase in metoprolol AUC (CYP2D6 [12]; [17]): up to 5 fold
increase in metoprolol peak concentrations (CYP2D6 [12]; [17]): up to 3 fold
t½, mean (SD) (CYP2D6 [12]; metoprolol 100 mg single oral dose alone): 3.69 (0.83) h
increase in mean AUC0–∞ (CYP2D6 [12]; [18]): 5.1 fold
increase in mean Cmax (CYP2D6 [12]; [18]): 3.5 fold
range of tmax (CYP2D6 [12]; metoprolol during coadministration with pridopidine): 1 to 4 h
SMILES: COCCc1ccc(OCC(O)CNC(C)C)cc1 (stereo not shown) [metoprolol]

change in CYP3A4 mRNA levels (CYP3A4/5; [19]): < 2 fold
change in CYP2C9 mRNA levels (CYP2C9 [2]; [19]): < 2 fold
change in CYP2C9 activity (CYP2C9 [2]; [20]): < 2 fold
effect of heat inactivation of FMO on CYP2D6 MDI extent (CYP2D6 [3]; HLM heat treated (50°C, 2 min)): did not affect
pIC50 (CYP2D6 [3]; IC50, direct inhibition (no preincubation), HLM, preincubation time row 2 h): 4.41
pIC50 (CYP2D6 [3]; IC50, direct inhibition (no preincubation), HLM, preincubation time row 3 h): 4.41
pIC50 (CYP2D6 [3]; IC50, direct inhibition (no preincubation), HLM, preincubation time row 4 h): 4.41
reversibility of metabolism‐dependent inhibition of CYP2D6 (CYP2D6 [3]; microsomal re‐isolation or addition of potassium ferricyanide): not reversed
Cmax (clinical): 525 ng/mL
Cmax,ss, mean (SD) ([13]; 45 mg BID for 7 days, PM (6–18 h), metoprolol given with PM dose): 727.30 (152.38) ng ml^–1
Cav,ss, mean (SD) ([13]; 45 mg BID, AM (0–6 h)): 407.29 (90.82)
AUCss, mean (SD) ([13]; 45 mg BID, AM (0–6 h), AUC0–6): 2443.75 (544.95) ng h ml^–1
Cav,ss, mean (SD) ([13]; 45 mg BID, PM (6–18 h)): 447.33 (92.19)
AUCss, mean (SD) ([13]; 45 mg BID, PM (6–18 h), AUC0–18 following the afternoon dose): 8052.03 (1659.34) ng h ml^–1
time of BID dosing after which steady state was reached ([13]; 45 mg BID, morning trough plasma levels): 7 days
change in CYP1A2 mRNA levels (CYP1A2 [5]; [19]): < 2 fold
change in CYP1A2 activity (CYP1A2 [5]; [20]): < 2 fold
change in CYP2C8 mRNA levels (CYP2C8 [7]; [19]): < 2 fold
change in CYP2C8 activity (CYP2C8 [7]; [20]): < 2 fold
decrease in CYP2D6 activity compared to vehicle control (CYP2D6 [15]; hepatocyte cultures, vehicle 0.1% DMSO): up to 64.2%
change in CYP2D6 mRNA levels (CYP2D6 [15]; 3 days, three hepatocyte cultures): < 2 fold
difference in median tmax, fed state in comparison to fasted state (single 90‐mg dose): 1.5 h
change in CYP2C19 mRNA levels (CYP2C19 [9]; [19]): < 2 fold
change in CYP2C19 activity (CYP2C19 [9]; [20]): < 2 fold
change in CYP2B6 mRNA levels (CYP2B6; [19]): < 2 fold
change in CYP2B6 activity (CYP2B6; [20]): < 2 fold
SMILES: CCCN1CCC(c2cccc(S(C)(=O)=O)c2)CC1 [pridopidine, 4‐[3‐(methylsulfonyl)phenyl]‐1‐propylpidperidine]
time (tmax) to reach Cmax ([4]; oral administration): roughly 2 h
mean peak concentration in plasma ([4]; single 45‐mg dose): 303 ng ml^–1
pridopidine exposure ([4]; single dose, extensive metabolizers): 3782 ng h ml^–1
pridopidine exposure ([4]; single dose, poor metabolizers): 11 192 ng h ml^–1
mean peak concentration in plasma ([4]; steady state following 14 days of 45 mg BID dosing): 620 ng ml^–1
pridopidine exposure ([4]; steady state, extensive metabolizers): 9338 ng h ml^–1
pridopidine exposure ([4]; steady state, poor metabolizers): 12 080 ng ml^–1
amnestic aphasia, subjects ([14]; following BID administration, two subjects): 9.1%
increase in pulse rate ([14]; pridopidine 45 mg BID): up to 12 beats min^–1
